Measurements from EP0214862A2, “Anti-tumour platinum complexes, their preparation and their use” (priority 1985, dated 1987).

What was measured:
[1] = system: L1210 cells; test: Anti-tumour activity against L1210 leukemia inoculated intraperitoneally in mice (Experiment 1); assay type: in vivo; conditions: L1210, CDF1 mice
Method: In the following experiments, the test animals used were 8 to 9 week old female mice of the CDF1 strain, each weighing 20-25 g.
(§1) CDF1 mice were inoculated intraperitoneally with L1210 cells ([…]). […] Each drug was injected intraperitoneally on days 1 and 4 following tumour implantation. The number of mice in each test group was 6.
(§2) The increase in life span (ILS) was calculated as follows: • ILS% = [(St/Su) - 1] x 100 • in which: • St = weighted median number of days survival of treated mice; and • Su = weighted median number of days survival of untreated mice.

[2] = system: cisplatin-resistant L1210/CDDP cells; test: Anti-tumour activity against cisplatin-resistant L1210/CDDP leukemia in mice (Experiment 2); assay type: in vivo
Description: (§3) In the following experiments, the test animals used were 8 to 9 week old female mice of the CDF1 strain, each weighing 20-25 g. The standard L1210 leukemia cells were supplied by Dr. T. Yamamoto of the Institute of Medical Science, University of Tokyo, Japan, whilst the cisplatin-resistant L1210 cell line (L1210/CDDP) was supplied by Dr. T. Tashiro of the Cancer Chemotherapy Centre, Japanese Foundation for Cancer Research, Tokyo, Japan.
as §1, §2
The procedures described in Experiment 1 were repeated exactly, except that the tumour cells were cisplatin-resistant L1210/CDDP cells.

[3] = system: cisplatin-resistant L1210 cell line (L1210/CDDP); test: In vitro sensitivity of the cisplatin-resistant cell line versus parent L1210; assay type: cell-based, mouse; conditions: L1210/CDDP relative to the parent L1210 cell line
Description: as §3

[4] = Dose 5 mg/kg intraperitoneally on days 1 and 4
[5] = Dose 10 mg/kg intraperitoneally on days 1 and 4
[6] = Dose 20 mg/kg intraperitoneally on days 1 and 4
[7] = Dose 40 mg/kg intraperitoneally on days 1 and 4
[8] = Dose 80 mg/kg intraperitoneally on days 1 and 4
[9] = Dose 5 mg/kg intraperitoneally on days 1 and 4, CDF1 mice
[10] = Dose 0.625 mg/kg intraperitoneally on days 1 and 4
[11] = Dose 1.25 mg/kg intraperitoneally on days 1 and 4
[12] = Dose 2.5 mg/kg intraperitoneally on days 1 and 4
[13] = Dose 2.5 mg/kg intraperitoneally on days 1 and 4, CDF1 mice
[14] = Dose 30 mg/kg intraperitoneally on days 1 and 4, CDF1 mice
[15] = Dose 60 mg/kg intraperitoneally on days 1 and 4, CDF1 mice

For `C1CCC2[NH][Pt-2]3([NH]C2C1)[O]C1=[N+](CCN1)[Pt-2]1([NH2+]C2CCCCC2[NH2+]1)[OH+]3` (stereo not drawn) [Example 1, Hydroxo(ethyleneurea-N,O)-bis(cis-(trans-(ℓ)-1,2-diaminocyclohexane)platinum (II)] nitrate], the “Wt. Change (Change in body weight from day 1 to day 7)” value (“Wt. Change” for short) [1, 4] was “+2.6 g”, the “Wt. Change” value [1, 5] was “+2.8 g” and the “Wt. Change” value [1, 6] was “+2.2 g”. The “Wt. Change” value [1, 7] was “+0.4 g”, the “Wt. Change” value [1, 8] was “+0.2 g” and the “Wt. Change” value ([1]; Dose 160 mg/kg intraperitoneally on days 1 and 4) was -3.0 g. The “toxic (number of mice)” value ([1]; Dose 240 mg/kg intraperitoneally on days 1 and 4) was “- (2/6, toxic)”, the “toxic (number of mice)” value ([1]; Dose 320 mg/kg intraperitoneally on days 1 and 4) was “- (5/6, toxic)” and the “Body weight change from days 1 to 7” value [2, 9] was “+2.4”. The “Body weight change from days 1 to 7” value ([2]; Dose 10 mg/kg intraperitoneally on days 1 and 4, CDF1 mice) was “+2.3”, the “Body weight change from days 1 to 7” value ([2]; Dose 20 mg/kg intraperitoneally on days 1 and 4, CDF1 mice) was “+2.2” and the “Body weight change from days 1 to 7” value ([2]; Dose 40 mg/kg intraperitoneally on days 1 and 4, CDF1 mice) was -0.3. The “Body weight change from days 1 to 7” value ([2]; Dose 80 mg/kg intraperitoneally on days 1 and 4, CDF1 mice) was -0.5 and the “Body weight change from days 1 to 7” value ([2]; Dose 160 mg/kg intraperitoneally on days 1 and 4, CDF1 mice) was -1.8.
`N.N.[Cl][Pt][Cl]` [cisplatin] was tested, and the “ILS (Increase in life span)” value [1, 10] was 8%, the “Med.S.T. (Median survival time)” value [1, 10] was 9.1 days and the “Survivors on day 42” value [1, 10] was 0/6. The “Wt. Change” value [1, 10] was “+1.6 g”, the “ILS (Increase in life span)” value [1, 11] was 15% and the “Med.S.T. (Median survival time)” value [1, 11] was 9.7 days. The “Survivors on day 42” value [1, 11] was 0/6, the “Wt. Change” value [1, 11] was “+2.5 g” and the “ILS (Increase in life span)” value [1, 12] was 58%. The “Med.S.T. (Median survival time)” value [1, 12] was 13.3 days, the “Survivors on day 42” value [1, 12] was 0/6 and the “Wt. Change” value [1, 12] was “+1.7 g”. For the same molecule, the “ILS (Increase in life span)” value [1, 4] was 364%, the “Med.S.T. (Median survival time)” value [1, 4] was 39.0 days and the “Survivors on day 42” value [1, 4] was 2/6. The “Wt. Change” value [1, 4] was -3.5 g, the “ILS (Increase in life span)” value [1, 5] was 23% and the “Med.S.T. (Median survival time)” value [1, 5] was 10.3 days. The “Survivors on day 42” value [1, 5] was 0/6, the “Wt. Change” value [1, 5] was -5.5 g and the 30-day survivors [2, 13] was 0/5. For the same molecule, the “Body weight change from days 1 to 7” value [2, 13] was “+1.0”, the “ILS(%)” value [2, 13] was 2% and the Median survival days [2, 13] was 9.3 days. The 30-day survivors [2, 9] was 0/6, the “Body weight change from days 1 to 7” value [2, 9] was -1.9 and the “ILS(%)” value [2, 9] was 9%. For the same molecule, the Median survival days [2, 9] was 9.9 days and the “degree of cisplatin resistance in terms of in vitro sensitivity” value [3] was 40 fold.
With carboplatin the “ILS (Increase in life span)” value [1, 4] was 7%, the “Med.S.T. (Median survival time)” value [1, 4] was 9.0 days and the “Survivors on day 42” value [1, 4] was 0/6. For the same molecule, the “Wt. Change” value [1, 4] was “+1.3 g”, the “ILS (Increase in life span)” value [1, 5] was 7% and the “Med.S.T. (Median survival time)” value [1, 5] was 9.0 days. For the same molecule, the “Survivors on day 42” value [1, 5] was 0/6, the “Wt. Change” value [1, 5] was “+2.0 g” and the “ILS (Increase in life span)” value [1, 6] was 7%. The “Med.S.T. (Median survival time)” value [1, 6] was 9.0 days, the “Survivors on day 42” value [1, 6] was 0/6 and the “Wt. Change” value [1, 6] was “+0.8 g”. The “ILS (Increase in life span)” value [1, 7] was 10%, the “Med.S.T. (Median survival time)” value [1, 7] was 9.2 days and the “Survivors on day 42” value [1, 7] was 0/6. For the same molecule, the “Wt. Change” value [1, 7] was “+0.4 g”, the “ILS (Increase in life span)” value [1, 8] was 23% and the “Med.S.T. (Median survival time)” value [1, 8] was 10.3 days. For the same molecule, the “Survivors on day 42” value [1, 8] was 0/6, the “Wt. Change” value [1, 8] was -0.5 g and the 30-day survivors [2, 14] was 0/6. For the same molecule, the “Body weight change from days 1 to 7” value [2, 14] was “+1.2”, the “ILS(%)” value [2, 14] was 9% and the Median survival days [2, 14] was 9.9 days. For the same molecule, the 30-day survivors [2, 15] was 0/6, the “Body weight change from days 1 to 7” value [2, 15] was -0.6 and the “ILS(%)” value [2, 15] was 8%. For the same molecule, the Median survival days [2, 15] was 9.8 days.
